In patent US7589097B2, “Triazol[4,5-d] pyramidine derivatives and their use as purinergic receptor antagonists” (Vernalis Research Limited, priority 2001, dated 2009):

CC(C)CC(=O)NCc1cccc(Cn2nnc3c(-c4ccco4)nc(N)nc32)c1 [Example 85, N-(3-(5-amino-7-(2-furyl)-3H-[1,2,3]triazolo[4,5-d]pyrimidin-3-ylmethyl)benzyl)-3-methylbutanamide]
melting point: 215.9 to 217.5 °C

Cc1c(Cn2nnc3c(-c4ccco4)nc(N)nc32)cccc1[N+](=O)[O-] [Example 88, 7-(2-furyl)-3-(2-methyl-3-nitrobenzyl)-3H-[1,2,3]triazolo[4,5-d]pyrimidine-5-amine]
melting point: 258.8 to 259 °C

Cc1c(N)cccc1Cn1nnc2c(-c3ccco3)nc(N)nc21 [Example 89, 3-(3-amino-2-methylbenzyl)-7-(2-furyl)-3H-[1,2,3]triazolo[4,5-d]pyrimidine-5-amine]
melting point: 247.1 to 247.2 °C

Cc1ccc(Cn2nnc3c(-c4ccco4)nc(N)nc32)cc1N [Example 90, 3-(3-amino-4-methylbenzyl)-7-(2-furyl)-3H-[1,2,3]triazolo[4,5-d]pyrimidine-5-amine]
melting point: 268.5 to 269.1 °C

Cc1noc(C)c1Cn1nnc2c(-c3ccco3)nc(N)nc21 [Example 91, 3-(3,5-dimethylisoxazol-4-ylmethyl)-7-(2-furyl)-3H-[1,2,3]triazolo[4,5-d]pyrimidine-5-amine]
melting point: 284.3 to 284.5 °C

Cc1cc(Cn2nnc3c(-c4ccco4)nc(N)nc32)ccc1[N+](=O)[O-] [Example 94, 7-(2-furyl)-3-(3-methyl-4-nitrobenzyl)-3H-[1,2,3]triazolo[4,5-d]pyrimidine-5-amine]
melting point: 237.8 to 238 °C

Cc1cccnc1Cn1nnc2c(-c3ccco3)nc(N)nc21 [Example 95, 7-(2-furyl)-3-(3-methyl-2-pyridylmethyl)-3H-[1,2,3]triazolo[4,5-d]pyrimidine-5-amine]
melting point: 249.8 to 250 °C

Cc1ccc([N+](=O)[O-])c(Cn2nnc3c(-c4ccco4)nc(N)nc32)c1 [Example 96, 7-(2-furyl)-3-(5-methyl-2-nitrobenzyl)-3H-[1,2,3]triazolo[4,5-d]pyrimidine-5-amine]
melting point: 226.6 to 226.9 °C

Cc1nc(Cn2nnc3c(-c4ccco4)nc(N)nc32)cs1 [Example 100, 7-(2-furyl)-3-(2-methylthiazol-4-ylmethyl)-3H-[1,2,3]triazolo[4,5-d]pyrimidine-5-amine]
melting point: 285.7 to 285.9 °C

NCc1cccc(Cn2nnc3c(-c4ccn[nH]4)nc(N)nc32)c1 [Example 101, 3-(3-Aminomethylbenzyl)-7-(1H-pyrazol-3-yl)-3H-[1,2,3]triazolo[4,5-d]pyrimidine-5-amine]
melting point: 279.9 to 280.3 °C

Cc1ccc(N)c(Cn2nnc3c(-c4ccco4)nc(N)nc32)c1 [Example 104, 3-(2-amino-5-methylbenzyl)-7-(2-furyl)-3H-[1,2,3]triazolo[4,5-d]pyrimidine-5-amine]
melting point: 249.9 to 250.5 °C

N#Cc1ccnc(Cn2nnc3c(-c4ccco4)nc(N)nc32)c1 [Example 105, 3-(4-cyano-2-pyridylmethyl)-7-(2-furyl)-3H-[1,2,3]triazolo[4,5-d]pyrimidine-5-amine]
melting point: 263.2 to 263.5 °C

Cc1cnc(Cn2nnc3c(-c4ccco4)nc(N)nc32)cn1 [Example 106, 7-(2-furyl)-3-(5-methyl-2-pyrazinylmethyl)-3H-[1,2,3]triazolo[4,5-d]pyrimidine-5-amine]
melting point: 288.1 to 288.2 °C

Nc1nc(-c2ccco2)c2nnn(Cc3csc(-c4ccccc4)n3)c2n1 [Example 108, 7-(2-furyl)-3-(2-phenylthiazol-4-ylmethyl)-3H-[1,2,3]triazolo[4,5-d]pyrimidine-5-amine]
melting point: 215 to 215.3 °C

Cc1csc(-c2nc(N)nc3c2nnn3Cc2cccc([N+](=O)[O-])c2)n1 [Example 109, 7-(4-methyl-2-thiazolyl)-3-(3-nitrobenzyl)-3H-[1,2,3]triazolo[4,5-d]pyrimidine-5-amine]
melting point: 289.8 to 289.9 °C

Nc1nc(-c2ccco2)c2nnn(Cc3ccc(Cl)c([N+](=O)[O-])c3)c2n1 [Example 110, 3-(4-chloro-3-nitrobenzyl)-7-(2-furyl)-3H-[1,2,3]triazolo[4,5-d]pyrimidine-5-amine]
melting point: 247.4 to 247.5 °C

Nc1nc(-c2ccco2)c2nnn(Cc3ccc4nonc4c3)c2n1 [Example 111]
melting point: 244.1 to 244.6 °C

COCc1cccc(Cn2nnc3c(-c4ccco4)nc(N)nc32)n1 [Example 112, 7-(2-furyl)-3-(6-methoxymethyl-2-pyridylmethyl)-3H-[1,2,3]triazolo[4,5-d]pyrimidine-5-amine]
melting point: 190.4 to 191.4 °C

Nc1nc(-c2ccco2)c2nnn(Cc3ccc(Cl)c(N)c3)c2n1 [Example 114, 3-(3-amino-4-chlorobenzyl)-7-(2-furyl)-3H-[1,2,3]triazolo[4,5-d]pyrimidine-5-amine]
melting point: 256.7 to 257.1 °C

Nc1nc(-c2ccco2)c2nnn(Cc3ccc(Cl)cc3[N+](=O)[O-])c2n1 [Example 119, 3-(4-chloro-2-nitrobenzyl)-7-(2-furyl)-3H-[1,2,3]triazolo[4,5-d]pyrimidine-5-amine]
melting point: > 230 °C

Cc1ccc(-c2nc(N)nc3c2nnn3Cc2ccc([N+](=O)[O-])c(C)c2)o1 [Example 123, 7-(5-methyl-2-furyl)-3-(3-methyl-4-nitrobenzyl)-3H-[1,2,3]triazolo[4,5-d]pyrimidine-5-amine]
melting point: 214.6 to 216.2 °C

Cc1ccc(-c2nc(N)nc3c2nnn3Cc2ccc(N)c(C)c2)o1 [Example 124, 3-(4-amino-3-methylbenzyl)-7-(5-methyl-2-furyl)-3H-[1,2,3]triazolo[4,5-d]pyrimidine-5-amine]
melting point: 215.7 to 216.7 °C

Cc1cnccc1Cn1nnc2c(-c3ccco3)nc(N)nc21 [Example 126, 7-(2-furyl)-3-(3-methyl-4-pyridylmethyl)-3H-[1,2,3]triazolo[4,5-d]pyrimidine-5-amine]
melting point: 229.6 to 230.3 °C

Nc1nc(-c2ccco2)c2nnn(Cc3cnccn3)c2n1 [Example 128, 7-(2-furyl)-3-(2-pyrazinylmethyl)-3H-[1,2,3]triazolo[4,5-d]pyrimidine-5-amine]
melting point: 129.1 to 131 °C

Nc1nc(-c2ccco2)c2nnn(Cc3ccc(F)c([N+](=O)[O-])c3)c2n1 [Example 129, 3-(4-fluoro-3-nitrobenzyl)-7-(2-furyl)-3H-[1,2,3]triazolo[4,5-d]pyrimidine-5-amine]
melting point: 266.5 to 266.7 °C

Nc1nc(-c2ccccc2)c2nnn(Cc3cccc([N+](=O)[O-])c3)c2n1 [Example 130, 3-(3-nitrobenzyl)-7-phenyl-3H-[1,2,3]triazolo[4,5-d]pyrimidine-5-amine]
melting point: 149 to 149.6 °C

Cc1ccnc(Cn2nnc3c(-c4ccco4)nc(N)nc32)c1 [Example 131, 7-(2-furyl)-3-(4-methyl-2-pyridylmethyl)-3H-[1,2,3]triazolo[4,5-d]pyrimidine-5-amine]
melting point: 225.7 to 225.8 °C

COc1cc(Cn2nnc3c(-c4ccco4)nc(N)nc32)ccc1[N+](=O)[O-] [Example 133, 7-(2-furyl)-3-(3-methoxy-4-nitrobenzyl)-3H [1,2,3]triazolo[4,5-d]pyrimidine-5-amine]
melting point: 209.7 to 209.9 °C

CCc1cccc(Cn2nnc3c(-c4ccco4)nc(N)nc32)n1 [Example 135, 3-(6-ethyl-2-pyridylmethyl)-7-(2-furyl)-3H-[1,2,3]triazolo[4,5-d]pyrimidine-5-amine]
melting point: 208.6 to 208.8 °C
